For series [1] the following is noted: rats; cited from earlier work.
The subject of series [2] is human uterine tissue. The conditions noted are these: cited from earlier work.
In series [3] the test system is human breast tumor cells. The conditions noted are these: cited from earlier work.
The conditions of series [4]: in vivo, cited from earlier work.
For series [5] the following is noted: rats; cited from earlier work. The source holds these as a separate data set.
The subject of series [6] is rat uterine tissue. The following applies: cited from earlier work.
Series [7] concerns PC-3 cells. The series is described as follows: growth inhibition assay (MTT), androgen-independent human prostate cancer cells. The conditions noted are these: concentrations of 5 μM or higher, 7 days of treatment, 575 nm. The format is cell-based. The method, then: (§1) [drawing 32] was synthesized as described in Example 4 without methylation at the 7-position of the steroid nucleus. The compound was evaluated for its inhibitory effect on androgen-independent human prostate cancer cells, DU145 cells and PC-3 cells, in a standard in vitro androgen-independent human prostate cancer assay.
(§2) DU145 and PC-3 human prostate cancer cell lines were obtained from the American Type Culture Collection, Rockville, Md. Eagle's minimum essential medium, RPMI-1640 medium, fetal calf serum, nonessential amino acids, and sodium pyruvate were purchased from Sigma, St. Louis, Mo.
(§3) PC-3 cells were maintained in RPMI-1640 medium supplemented with 10% fetal calf serum (FCS) and DU145 cells in Eagle's minimum essential medium (MEM) supplemented with 10% FCS. 1% nonessential amino acids, and 1 mM pyruvate. All cells were cultured at 37° C. in a 5% CO2/ 95% air atmosphere in 100% humidity. […] After 7 days of treatment, viable cells in each well were measured using the MTT assay as described in “Cellular Proliferation Assay,” in Protocols and Applications, 3rd Edition (Promega Corporation). […]
(§4) The plate was kept at room temperature overnight and the blue color measured at 575 nm on an ELISA plate reader. Based on the optical density of samples treated with the test compound and that of the control, the inhibitory effect of SR 16312 was evaluated.

Series [8] deals with DU145 cells. The series is described as above. It counts as cell-based. The following applies: concentrations of 5 μM or higher, 7 days of treatment, 575 nm. The method, then:
as §1, §2, §3, §4

Counter-ions that a name gives are not always drawn.

Take `CCN(CC)Cc1ccc(OCC[C@H]2CCC3C4C(CCC32C)c2ccc(O)cc2C[C@H]4C)c(OC)c1` (stereo partly drawn) [SR 16234, 3-hydroxy-7α-methyl-21-[2′-methoxy-4′-(diethylaminomethyl)-phenoxy]-19-norpregna-1,3,5(10)triene citrate]: in series [1], the “high-density lipoprotein (HDL) cholesterol levels” value is reported as “increased” and the “low-density lipoprotein (LDL) cholesterol levels” value is reported as “lowered”. The anti-uterotrophic antagonist activity result in series [2] is recorded as “complete”. Moreover, the antagonist-antiestrogenic activity entry in series [3] is listed as “complete”. Also, the oral bioavailability entry in series [4] (po) was “good”. In addition, in series [4], the absorption result is on record as “good” and the half-life result is given as “good”. Besides, in series [5], the “agonist-estrogenic activity in the skeletal system” value was “maintenance of bone and prevention of bone loss”. Moreover, the anti-uterotrophic antagonist activity result in series [6] was “complete”.

By inhibition is commonly meant the percentage by which the read-out fell short of the control. Read a high inhibition as strong suppression. For the compound `CCN(CC)Cc1ccc(OCC[C@H]2CCC3C4CCC5=CC(=O)CCC5C4CCC32C)c(OC)c1` (some centres unmarked) [SR 16312], the inhibition in series [7] and in series [8] was around 100% in each case.

The values above are taken from US7772218B2, “Synthesis of anti-estrogenic and other therapeutic steroids from 21-hydroxy-19-norpregna-4-en-3-one” (SRI International, priority 2000, dated 2010).
